Laboratory results from PMC5235360 (Biochemistry, 2016).

Biological target: bsLDH (Geobacillus stearothermophilus, UniProt P00344)
Format: binding

Chain of bsLDH (P00344 whole entry): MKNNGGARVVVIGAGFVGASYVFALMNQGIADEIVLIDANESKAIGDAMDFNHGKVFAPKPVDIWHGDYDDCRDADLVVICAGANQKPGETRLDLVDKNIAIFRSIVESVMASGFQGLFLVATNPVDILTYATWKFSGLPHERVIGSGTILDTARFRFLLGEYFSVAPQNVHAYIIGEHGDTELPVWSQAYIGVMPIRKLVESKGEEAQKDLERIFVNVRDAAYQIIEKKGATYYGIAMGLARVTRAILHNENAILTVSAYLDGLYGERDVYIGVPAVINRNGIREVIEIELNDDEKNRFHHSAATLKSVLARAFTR

Kd: 1.3 ± 0.7 µM
Structure (SMILES): NC(=O)C1=CN([C@@H]2O[C@H](COP(=O)(O)OP(=O)(O)OC[C@H]3O[C@@H](n4cnc5c(N)ncnc54)[C@H](O)[C@@H]3O)[C@@H](O)[C@H]2O)C=CC1 [NADH]
